The record followed here is paper PMC7726145, “Fine-tuning of lysine side chain modulates the activity of histone lysine methyltransferases” (Scientific Reports, 2020).

Assay type in all cases: biochemical
The target in test [1] is T1, GLP (Homo sapiens, UniProt Q9H9B1).
T1 construct: GLP residues 951–1235; His6 (N); made in house; host or cells: Escherichia coli Rosetta BL21 (DE3)pLysS
T1 sequence (Q9H9B1 982-1266): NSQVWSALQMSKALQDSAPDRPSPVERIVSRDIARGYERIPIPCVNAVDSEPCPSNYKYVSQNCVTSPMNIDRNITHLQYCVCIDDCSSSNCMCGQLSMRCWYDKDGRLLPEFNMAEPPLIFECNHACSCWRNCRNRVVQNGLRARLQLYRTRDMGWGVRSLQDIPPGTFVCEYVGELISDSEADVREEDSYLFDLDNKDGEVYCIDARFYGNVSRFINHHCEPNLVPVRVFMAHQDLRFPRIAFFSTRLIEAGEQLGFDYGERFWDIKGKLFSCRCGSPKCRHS
The experiment in a line: MALDI-TOF MS methylation assay with GLP. Particulars: GLP 2 µM, peptide 100 µM, SAM 500 µM, Tris 50 mM, pH 8.0, 1 h at 37 °C. Here is the method: (§1) Human KMTs enzymes were expressed and purified as previously described[36]–[38]. The methyltransferase plasmid (SETD8 residues 186–352, SETD7 residues 1–366, GLP residues 951–1235, G9a residues 913–1193) transformed into Escherichia coli Rosetta BL21 (DE3)pLysS cells. Cultures were grown at 37 °C in LB media containing kanamycin and chloramphenicol. Cells were grown to an OD600 of 0.5–0.6 (approximately 2.5–3 h), at which point they induced by isopropyl β-D-1-thiogalactopyranoside (IPTG) and they were transferred to a temperature of 16 °C overnight. After letting the cells grow at this temperature, they were then harvested and lysed by sonication. The lysate was centrifuged at high-speed to remove unbroken cells. The supernatant was then centrifuged to further clean the lysate. Purification of the N-terminally his6-tagged KMTs was performed using Ni–NTA affinity chromatography column, which was prewashed with lysis buffer. Target KMT enzyme was then eluted using a linear gradient concentration of imidazole. The elute was then concentrated with centrifugal concentrators (Millipore). All KMT enzymes were further purified by gel filtration on a Superdex 75 column (GE Healthcare) on an AKTA system.

Test [2] concerns the target T2, G9a (Homo sapiens, UniProt Q96KQ7).
T2 construct: G9a residues 913–1193; His6 (N); made in house; host or cells: Escherichia coli Rosetta BL21 (DE3)pLysS
T2 sequence (Q96KQ7 913-1193): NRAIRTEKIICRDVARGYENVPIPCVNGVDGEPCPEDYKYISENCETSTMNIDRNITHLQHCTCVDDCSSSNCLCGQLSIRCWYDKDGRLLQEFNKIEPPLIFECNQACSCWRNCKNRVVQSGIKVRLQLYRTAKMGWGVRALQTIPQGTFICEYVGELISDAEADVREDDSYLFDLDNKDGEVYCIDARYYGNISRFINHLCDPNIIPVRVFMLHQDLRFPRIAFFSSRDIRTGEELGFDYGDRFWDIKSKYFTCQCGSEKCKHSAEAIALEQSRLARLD
Put plainly: MALDI-TOF MS methylation assay with G9a. The settings on record: G9a 2 µM, peptide 100 µM, SAM 500 µM, Tris 50 mM, pH 8.0, 1 h at 37 °C. Here is the method:
as §1

The target in test [3] is T2, G9a. The experiment in a line: Residual activity / inhibition of G9a-catalyzed methylation of H3K9. Particulars: G9a 100 nM; 14-mer H3K9 5 µM; analogue 100 µM. The procedure:
as §1

For test [4], the target named is T1, GLP. The experiment in a line: Residual activity / inhibition of GLP-catalyzed methylation of H3K9. The settings on record: GLP 100 nM; 14-mer H3K9 5 µM; analogue 100 µM. Here is the method: as §1
Test [5] deals with T1, GLP. The experiment in a line: NMR analysis of GLP-catalyzed methylation. The settings on record: GLP 8 µM; peptide 400 µM; SAM 2 mM; Tris-d11 buffer pD 8.0; 1 h at 37 °C; 1H NMR and 1H-13C HSQC. The procedure:
as §1

As for “ARTKQTARK^9STGGKA [H3K9, native histone peptide, N-terminal 15-residues of H3]”, the “methylation products with GLP” value on GLP [1] is on record as “complete trimethylation”. At G9a [2], the “methylation products with G9a” value is listed as “complete trimethylation”. In addition, the “inhibition of G9a in words” value against G9a [3] was “outcompetes H3KO9 and H3KN9 peptides for binding in the active site of G9a/GLP”. Besides, on GLP [4], the “inhibition of GLP in words” value was “outcompetes H3KO9 and H3KN9 peptides for binding in the active site of G9a/GLP”. In addition, the “methylation observed by NMR” value on GLP [5] is “resulted in a signal of H3K9me3”.
